In PubChem BioAssay AID1996:
In brackets after ≈: the same amount, converted by molar mass.

Details: buffer; pH 7.4; 200.0 µM
In the case of Cc1ccc(NS(=O)(=O)c2cc(N)ccc2Cl)c(C)c1, the solubility kinetic was 43.5 µg/mL (≈ 140 µM).
CCc1ccc2nc(Nc3ncc(C(C)=O)c(C)n3)nc(C)c2c1 showed a solubility kinetic of 6.9 µg/mL (≈ 21.5 µM).
CC1CCCC(NC(=O)COC(=O)COc2ccc(Br)cc2)C1C (stereo not given) gave a solubility kinetic of 11.6 µg/mL (≈ 29.1 µM).
In the case of Cc1noc(C)c1C(=O)OCC(=O)NCc1ccc(Cl)cc1, the solubility kinetic was 15.6 µg/mL (≈ 48.3 µM).
Compound NS(=O)(=O)c1cc2c(cc1C(F)(F)F)NCNS2(=O)=O has a solubility kinetic of over 49.7 µg/mL.
CCc1ccc(C(=O)CN2C(=O)NC(C)(c3ccc(C)cc3)C2=O)cc1 (stereo not given) gave a solubility kinetic of 2.1 µg/mL (≈ 5.99 µM).
Work on NCCNC(=O)c1c(NC(=O)c2ccccc2)sc2c1CCCC2 yielded a solubility kinetic of 41.1 µg/mL (≈ 120 µM).
Work on O=C(Nc1nc2ccc(F)cc2s1)Oc1ccccc1 yielded a solubility kinetic of 1.7 µg/mL (≈ 5.9 µM).
CC1CCCN(Cc2ccc(OCc3ccccc3)cc2)C1 (stereo not given) showed a solubility kinetic of 31.5 µg/mL (≈ 107 µM).
In the case of CC(Sc1nnc2n1CCCCC2)C(=O)Nc1ccccc1[N+](=O)[O-] (stereo not given), the solubility kinetic was over 54.2 µg/mL.
Cc1nnc(SCC(=O)N2CCCC2)n(N)c1=O gave a solubility kinetic of over 40.4 µg/mL.
COc1ccccc1C(=O)NC1CCSc2ccccc21 (stereo not given) showed a solubility kinetic of 31.5 µg/mL (≈ 105 µM).
With CC(CCc1ccc(O)cc1)NC1c2ccccc2-c2ccccc21 (stereo not given) the solubility kinetic was 26.1 µg/mL (≈ 79.2 µM).
For CC(C)=NN1C(c2nonc2N)=NOC1(C)C, the solubility kinetic was over 35.7 µg/mL.
CCOC(=O)c1sc2ncc([N+](=O)[O-])cc2c1N showed a solubility kinetic of 3.8 µg/mL (≈ 14.2 µM).
CC(C)Sc1ccccc1C(=O)Nc1ccc2c(c1)n(C)c(=O)n2C gave a solubility kinetic of over 53.3 µg/mL.
For CC1CCCC(NC(=O)CSc2cccc[n+]2[O-])C1C (stereo not given), the solubility kinetic was over 44.2 µg/mL.
Cn1cc(-c2cc(C(=O)O)on2)cn1 showed a solubility kinetic of over 29 µg/mL.
For CC1(C)C(=O)OC(c2ccc([N+](=O)[O-])cc2)C(C)(C)C1=O (stereo not given), the solubility kinetic was 2.5 µg/mL (≈ 8.58 µM).
Work on COc1ccc(Cl)cc1NC(=O)c1noc(C)c1[N+](=O)[O-] yielded a solubility kinetic of 9 µg/mL (≈ 28.9 µM).
With CN1CCN(CCc2nc3cc(NC(=O)c4ccco4)ccc3n2C)CC1 the solubility kinetic was over 55.1 µg/mL.
In the case of CCOc1ccccc1NC(=O)c1ccc2c(c1)C(=O)N(CC)C2=O, the solubility kinetic was under 0.4 µg/mL.
Compound COC(=O)c1cc(N=C(N)N=C(N)N)cc(C(=O)OC)c1 has a solubility kinetic of over 44 µg/mL.
With CCOc1ccccc1/C=C/C(=O)N1CCN(C(=O)c2ccco2)CC1 the solubility kinetic was over 53.2 µg/mL.
Compound COc1ccc(OC)c2sc(N(CCN(C)C)C(=O)c3ccc4ccccc4c3)nc12.Cl has a solubility kinetic of 8.6 µg/mL.
Work on Nc1c(Cl)cnc(C(Cl)(Cl)Cl)c1Cl yielded a solubility kinetic of 19.6 µg/mL (≈ 69.9 µM).
CCOC(=O)c1ccc(C(=S)N2CCCC2)cc1 showed a solubility kinetic of 37.3 µg/mL (≈ 142 µM).
CC(C)(C)CC(=O)Nc1cc2c3c(c1)CCC(=O)N3CCC2 showed a solubility kinetic of 43.2 µg/mL (≈ 144 µM).
Compound COc1ccc(Cl)cc1NC(=O)CN(C)C(=O)C1CC1 has a solubility kinetic of over 44.5 µg/mL.
Work on N#Cc1cnc(Nc2ccc(F)cc2)nc1N yielded a solubility kinetic of 4.7 µg/mL (≈ 20.5 µM).
CCN(CC(=O)NC1CC1)S(=O)(=O)c1ccc(C)cc1 gave a solubility kinetic of over 44.5 µg/mL.
With Cc1cc(SCC(=O)N(C)C2CCCCC2)nc2ccccc12 the solubility kinetic was 19.4 µg/mL (≈ 59.1 µM).
Compound Cc1ccc(NC(=O)CNC(=O)c2ccc(C)s2)nc1 has a solubility kinetic of over 43.4 µg/mL.
Work on CN1CCCC(C(O)(c2ccccc2)c2ccccc2)C1 (stereo not given) yielded a solubility kinetic of 40.8 µg/mL (≈ 145 µM).
In the case of CC(C)c1ccc[n+](-c2nc([O-])sc2C=O)c1, the solubility kinetic was 27.4 µg/mL (≈ 110 µM).
O=C(NCCCN1CCOCC1)C(=O)NCc1ccc(Cl)cc1 showed a solubility kinetic of over 51 µg/mL.
In the case of CN1CCN(C(=O)c2cc(=O)c3cc(Cl)cc(Cl)c3o2)CC1, the solubility kinetic was 50.5 µg/mL (≈ 148 µM).
In the case of CC1(C)CC(NC(=S)NC2CC2)CC(C)(C)N1, the solubility kinetic was over 38.3 µg/mL.
CSc1ccc(NC(N)=S)cc1 gave a solubility kinetic of over 29.7 µg/mL.
For CC(Nc1nc(-c2ccccc2O)nc2ccccc12)c1ccccc1 (stereo not given), the solubility kinetic was under 0.2 µg/mL.
In the case of O=C(CCn1c(=O)oc2ccccc21)NCCCN1CCOCC1, the solubility kinetic was 43.2 µg/mL (≈ 130 µM).
O=C(O)CC1(CC(=O)Nc2ccc3sccc3c2)CCCCC1 gave a solubility kinetic of 42.6 µg/mL (≈ 129 µM).
Work on CCn1cc([N+](=O)[O-])c(C(=O)N2CCCc3ccccc32)n1 yielded a solubility kinetic of over 45 µg/mL.
Compound CC(=O)Nc1ccc(NC(=O)c2ccc(OCc3c(C)noc3C)cc2)cc1 has a solubility kinetic of 2.2 µg/mL (≈ 5.8 µM).
Cc1noc(C)c1S(=O)(=O)Nc1ccc(C(C)C)cc1 gave a solubility kinetic of over 44.2 µg/mL.
With O=C(NC1CC1)C1CCN(c2ncccn2)CC1 the solubility kinetic was over 36.9 µg/mL.
CCc1ccc(CCC(=O)Nc2ccc(C(=O)O)cc2)o1 gave a solubility kinetic of over 43.1 µg/mL.
For CCOc1ccccc1NC(=O)CN1C(=O)COc2ccccc21, the solubility kinetic was 3.6 µg/mL (≈ 11 µM).
In the case of CCCN(CC(=O)Nc1ccccc1C)C(=O)CCl, the solubility kinetic was over 42.4 µg/mL.
COc1ccccc1OCCNC(=O)c1ccc2c(c1)CCC2 gave a solubility kinetic of 42.2 µg/mL (≈ 136 µM).
CC(=O)c1c(C)nc(Nc2nc3ccccc3s2)nc1C gave a solubility kinetic of 0.2 µg/mL (≈ 0.67 µM).
Compound Cn1c(=O)c(=O)n(C)c2cc([N+](=O)[O-])c(N3CCOCC3)cc21 has a solubility kinetic of over 48 µg/mL.
For Cc1ccc(S(C)(=O)=NC(=O)NC(=O)c2c(Cl)cccc2Cl)cc1 (stereo not given), the solubility kinetic was 41.3 µg/mL (≈ 107 µM).
CC(=O)c1cccc(NC(=O)C2COc3ccccc3O2)c1 (stereo not given) showed a solubility kinetic of 44.1 µg/mL (≈ 148 µM).
Compound Cc1cccc(NC(=O)c2ccco2)c1C(=O)O has a solubility kinetic of 34.8 µg/mL (≈ 142 µM).
CNc1ccc(C(=O)OCC(=O)NC(=O)NC2CCCCC2)cc1[N+](=O)[O-] showed a solubility kinetic of 1.7 µg/mL (≈ 4.49 µM).
For Cc1ccc(S(=O)(=O)N2CCOCC2)cc1NC(=O)COC(=O)COc1ccccc1[N+](=O)[O-], the solubility kinetic was 72.2 µg/mL (≈ 146 µM).
With Cc1ccc(NC(=O)c2ccco2)c(NC(=O)COc2ccccc2)c1 the solubility kinetic was 5.3 µg/mL (≈ 15.1 µM).
Work on Cc1ccc(NC(=O)c2cc(-c3ccc(F)cc3)on2)cc1C yielded a solubility kinetic of 0.4 µg/mL (≈ 1.29 µM).
With Fc1ccc2[nH]c3c(c2c1)CN(C(=S)NCc1ccccc1)CC3 the solubility kinetic was 5 µg/mL (≈ 14.7 µM).
